How the values were obtained:
[1] = system: C57BL/6 mice; experiment: GCGR antibody with or without rapamycin in C57BL/6 mice: blood chemistry, islet cell mass; conditions: GCGR-antibody and rapamycin-treated mice
Procedure: C57BL/6 mice (males, 10 weeks of age, Taconic) were housed (5 mice per cage) in a controlled environment (12-h light/dark cycle, 22±1° C., 60-70% humidity) and fed ad libitum with standard chow (Purina Laboratory Rodent Diet 5001, LabDiet). Mice were assigned to study groups (n=10) based on baseline blood glucose levels. Mice were injected subcutaneously (sc) with GCGR antibody (3 mg/kg) or the control antibody (3 mg/kg) alone or in combination with rapamycin (10 mg/kg) or the vehicle. For the duration of the study, GCGR or control antibody was administered once weekly, whereas rapamycin or the vehicle was administered daily. Blood was collected from the tail for glucose measurements without fasting. Plasma samples were collected via submandibular bleeds at baseline and on day 21 after dosing for analysis of hormones and total amino acid levels. Seven days after the last antibody administration (day 21), mice were sacrificed, organs weighed and pancreata collected.
Pancreas α- and β-cell mass was measured as described elsewhere (Okamato et al., 2015, Endocrinology 156:2781-2794). α- and PP cell mass were determined using anti-somatostatin antibody (Sigma-Aldrich; #SAB4502861) and anti-pancreatic polypeptide antibody (Sigma-Aldrich; #SAB2500747). For quantifying Slc38a5 positive α-cells, pancreas sections were stained with human anti-glucagon and rabbit anti-Slc38a5 (Abcam; #ab72717) primary antibodies, and Alexa Fluor 488 labeled donkey anti-rabbit (Jackson ImmunoResearch; #711-545-152) and Alexa Fluor 594 donkey anti-human (Jackson ImmunoResearch; #709-585-149) secondary antibodies. For quantifying proliferating cells, Alexa Fluor 647 labeled anti-Ki67 (Abcam; #ab194724) was used in combination with anti-glucagon and anti-Slc38a5 antibodies. Slides were scanned using a Zeiss Axio Scan.Z1 slide scanner (Zeiss) and the images were analyzed using the Halo (Indica Labs).
Blood glucose was determined using ACCU-CHEK® Compact Plus (Roche Diagnostics). Plasma glucagon and insulin levels were determined using glucagon and mouse insulin ELISA (Mercodia). Plasma total amino acid levels were measured using L-Amino Acid Quantification Kit (Sigma-Aldrich).

[2] = system: αTC1-6 glucagonoma cells; experiment: αTC1-6 cell proliferation (CellTiter 96 Aqueous), WT and Slc38a5 KD; format: cell-based; conditions: 4 mM in culture medium, 5 days; for cell proliferation, Slc38a5 knock-down αTC1-6 cells: compared with wildtype cells
From the text: Slc38a5 KO αTC1 clones were generated using CRISPR-Cas9 techniques. Target sequences (sgRNAs) were designed using an online sgRNA design tool from DNA2.0 (DNA2.0). The sgRNAs were cloned into the pSpCas9-2A-GFP-Puro vector using BsmBl (NEB) and αTC1 cells were transfected with Lipofectamine 2000 according to the manufacturers' instructions (Life Technologies). Clones with deletion mutations were verified by PCR amplifications, TaqMan analysis and RNA sequencing. […] Both WT and Slc38a5 KD αTC1/6 cells were prepared in an assay medium (MEM from Gibco), supplemented with 5% fetal bovine serum (FBS), 10 mM HEPES, and 100 IU/ml penicillin and 100 μg/ml streptomycin) and seeded on 96-well plates at a density of ˜15,000 cells per well in 4-6 replicates. Selected amino acids were added to the final concentration of 4 mM. Cell proliferations were measured every day using the CellTiter 96 Aqueous Cell Proliferation Assay (Promega) according to the manufacturer's instructions. Briefly, 20 μl of assay reagent was added to each well and the cell plates were incubated in a tissue culture incubator for 2.5 hours. Absorbance was measured at 490 nm on a plate reader SpectraMax Plus (Molecular Devices). Values were corrected for background absorbance using the averages of the wells containing assay medium only and plotted in Prism (GraphPad).

muscle mass [1] | Compound | rate of cell proliferation, wildtype αTC1-6 cells [2] | cell proliferation, Slc38a5 knock-down αTC1-6 cells [2]
small reduction | CO[C@H]1C[C@@H]2CC[C@@H](C)[C@@](O)(O2)C(=O)C(=O)N2CCCC[C@H]2C(=O)O[C@H]([C@H](C)C[C@@H]2CC[C@@H](O)[C@H](OC)C2)CC(=O)[C@H](C)/C=C(\C)[C@@H](O)[C@@H](OC)C(=O)[C@H](C)C[C@H](C)/C=C/C=C/C=C/1C [rapamycin, reference compound] |  | 
 | C[C@H](N)C(=O)O [alanine] | significantly increased | to a much lesser extent
 | NC(=O)CC[C@H](N)C(=O)O [glutamine] | significantly increased | to a much lesser extent

Reference: patent publication US20190248888A1, “METHODS OF LOWERING BLOOD GLUCOSE LEVELS” (Regeneron Pharmaceuticals, Inc., priority 2016, published 2019)
